The values below come from US8394787B2, “7-aza-spiro[3.5]nonane-7-carboxylate derivatives, preparation thereof and therapeutic use thereof” (Sanofi, priority 2009, dated 2013).

Counter-ions that a name gives are not always drawn.

`NC(=O)c1cc(COC(=O)N2CC3(CC(Oc4ccc(Cl)c(F)c4)C3)C2)on1` [Compound 24, 3-carbamoyl-isoxazol-5-ylmethyl 6-(4-chloro-3-fluorophenoxy)-2-aza-spiro[3.3]heptane-2-carboxylate]: the melting point (commonly the temperature, or range, at which the solid turns liquid) lay within 135 to 137 °C.
The value for `NC(=O)c1cc(COC(=O)N2CCC3(CC2)CC(Oc2ccc(-c4ccc(F)cc4)cc2)C3)on1` [Compound 18, 3-carbamoyl-isoxazol-5-ylmethyl 2-(4′-fluorobiphenyl-4-yloxy)-7-aza-spiro[3.5]nonane-7-carboxylate] was 163 to 165 °C; that for `CNC(=O)c1cc(COC(=O)N2CCC3(CC2)CC(Oc2ccc(Cl)c4ccccc24)C3)on1` [Compound 17, 3-methylcarbamoyl-isoxazol-5-ylmethyl 2-(4-chloronaphthalen-1-yloxy)-7-aza-spiro[3.5]nonane-7-carboxylate] was 62 to 64 °C; that for `CNC(=O)c1cc(COC(=O)N2CC3(CC(Oc4ccc(Cl)c(F)c4)C3)C2)on1` [Compound 23, 3-methylcarbamoyl-isoxazol-5-ylmethyl 6-(4-chloro-3-fluorophenoxy)-2-aza-spiro[3.3]heptane-2-carboxylate] was 84 to 86 °C.
In turn, `CNC(=O)c1csc(COC(=O)N2CCC3(CC2)CC(Oc2cccc(-c4ccc(F)cc4)c2)C3)n1` [Compound 20, 4-methylcarbamoyl-thiazol-2-ylmethyl 2-(4′-fluorobiphenyl-3-yloxy)-7-aza-spiro[3.5]nonane-7-carboxylate] registered a melting point of 130 to 132 °C.
Compound `Cn1ncnc1COC(=O)N1CCC2(CC1)CC(Oc1ccc(Cl)cc1)C2` (as salt: HCl) yielded a melting point of 163 to 165 °C.
Next, `NC(=O)c1cc(COC(=O)N2CCC3(CC(Oc4ccc(-c5ccc(F)cc5)cc4)C3)C2)on1` (single isomer, unassigned) [Compound 28, 3-carbamoyl-isoxazol-5-ylmethyl 2-(4′-fluorobiphenyl-4-yloxy)-6-aza-spiro[3.4]octane-6-carboxylate]: 131 to 133 °C.
The value for `CNC(=O)c1cc(COC(=O)N2CCC3(CC2)CC(Oc2ccc(Cl)cc2)C3)on1` [Compound 3, 3-methylcarbamoyl-isoxazol-5-ylmethyl 2-(4-chlorophenoxy)-7-aza-spiro[3.5]nonane-7-carboxylate] was 147 to 149 °C.
Next, `NC(=O)c1cc(COC(=O)N2CCC3(CC(Oc4ccc(Cl)c(F)c4)C3)C2)on1` (single isomer, unassigned) [Compound 26, 3-carbamoyl-isoxazol-5-ylmethyl 2-(4-chloro-3-fluorophenoxy)-6-aza-spiro[3.4]octane-6-carboxylate]: 83 to 92 °C; `CCOc1ccc2ccc(OC3CC4(CCN(C(=O)OCc5cc(C(=O)NC)no5)CC4)C3)cc2c1` [Compound 8, 3-methylcarbamoyl-isoxazol-5-ylmethyl 2-(7-ethoxynaphthalen-2-yloxy)-7-aza-spiro[3.5]nonane-7-carboxylate]: 73 to 75 °C.
`NC(=O)c1cc(COC(=O)N2CCC3(CC(Oc4ccc(Cl)c5ccccc45)C3)C2)on1` (single isomer, unassigned) [Compound 30, 3-carbamoyl-isoxazol-5-ylmethyl 2-(4-chloronaphthalen-1-yloxy)-6-aza-spiro[3.4]octane-6-carboxylate] returned a melting point of 149 to 150 °C.
In turn, `CNC(=O)c1cc(COC(=O)N2CCC3(CC(Oc4ccc(Cl)c5ccccc45)C3)C2)on1` (single isomer, unassigned) [Compound 31, 3-methylcarbamoyl-isoxazol-5-ylmethyl 2-(4-chloronaphthalen-1-yloxy)-6-aza-spiro[3.4]octane-6-carboxylate] gave a melting point of 87 to 92 °C.
Next, `O=C(OCc1cscn1)N1CCC2(CC1)CC(Oc1ccc(Cl)cc1)C2`: 86 to 88 °C; `CNC(=O)c1cc(COC(=O)N2CCC3(CC(Oc4ccc(Cl)cc4)C3)C2)on1` (single isomer, unassigned): 94 to 97 °C; `CNC(=O)c1cc(COC(=O)N2CCC3(CC2)CC(Oc2ccc(Cl)c(F)c2)C3)on1` [Compound 22, 3-methylcarbamoyl-isoxazol-5-ylmethyl 2-(4-chloro-3-fluorophenoxy)-7-aza-spiro[3.5]nonane-7-carboxylate]: 107 to 108 °C.
Consider `CNC(=O)c1cc(COC(=O)N2CCC3(CC2)CC(Oc2ccc4ccncc4c2)C3)on1` [Compound 21, 3-methylcarbamoyl-isoxazol-5-ylmethyl 2-(isoquinolin-7-yloxy)-7-aza-spiro[3.5]nonane-7-carboxylate], for which the melting point was in the range of 79 to 81 °C.
The value for `CCOc1ccc2ccc(OC3CC4(CCN(C(=O)OCc5cc(C(N)=O)no5)CC4)C3)cc2c1` [Compound 13, 3-carbamoyl-isoxazol-5-ylmethyl 2-(7-ethoxynaphthalen-2-yloxy)-7-aza-spiro[3.5]nonane-7-carboxylate] was 114 to 116 °C; that for `NC(=O)c1cc(COC(=O)N2CCC3(CC2)CC(Oc2ccc(Cl)c4ccccc24)C3)on1` [Compound 16, 3-carbamoyl-isoxazol-5-ylmethyl 2-(4-chloronaphthalen-1-yloxy)-7-aza-spiro[3.5]nonane-7-carboxylate] was 75 to 77 °C.
Next, `NC(=O)c1coc(COC(=O)N2CCC3(CC(Oc4cccc(C(F)(F)F)c4)C3)C2)n1` (single isomer, unassigned) [Compound 14, 4-carbamoyl-oxazol-2-ylmethyl 2-(3-trifluoromethylphenoxy)-6-aza-spiro[3.4]octane-6-carboxylate]: 90 to 92 °C.
Next, `NC(=O)c1cc(COC(=O)N2CCC3(CC2)CC(Oc2ccc(Cl)cc2)C3)on1` [Compound 4, 3-carbamoyl-isoxazol-5-ylmethyl 2-(4-chlorophenoxy)-7-aza-spiro[3.5]nonane-7-carboxylate]: 70 to 72 °C; `NC(=O)c1cc(COC(=O)N2CCC3(CC2)CC(Oc2cccc(-c4ccc(F)cc4)c2)C3)on1` [Compound 12, 3-carbamoyl-isoxazol-5-ylmethyl 2-(4′-fluorobiphenyl-3-yloxy)-7-aza-spiro[3.5]nonane-7-carboxylate]: 74 to 76 °C.
